System: lung function
Experiment: Example 1: percent predicted FVC change from baseline
Format: in vivo, human
Conditions: mean (SD)
Protocol: Change From Baseline in Percent Predicted Forced Vital Capacity (FVC) at Each Specified Time Points. FVC was the total amount of air (in liters) exhaled from the lungs during the lung function test measured by spirometer which assessed the change in lung function related to the disease status. Baseline value was defined as valid and last non-missing value obtained within 28 days prior to participant receiving first study medication. EOT visit was performed within 3 days after the participant's last dose of study drug. […] Analysis was performed on mITT population. Here, ‘number analyzed’=participants with available data for each specified category. Here, ‘0’ in the number analyzed field signifies that none of the participants were available for the analysis at the specified time points.

CC(C)NC(=O)COc1cccc(-c2nc(Nc3ccc4[nH]ncc4c3)c3ccccc3n2)c1 [Belumosudil, 2-{3-[4-(1H-indazol-5-ylamino)-2-quinazolinyl]phenoxy}-N-(propan-2-yl) acetamide]
Change From Baseline in Percent Predicted Forced Vital Capacity (FVC) (Cohort 1: 200 mg QD, Cycle 3, Day 1): 0.5 (3.8) percent predicted FVC
Change From Baseline in Percent Predicted Forced Vital Capacity (FVC) (Cohort 1: 200 mg QD, Cycle 5, Day 1): −0.5 (7.1) percent predicted FVC
Change From Baseline in Percent Predicted Forced Vital Capacity (FVC) (Cohort 1: 200 mg QD, Cycle 7, Day 1): −2.9 (5.2) percent predicted FVC
Change From Baseline in Percent Predicted Forced Vital Capacity (FVC) (Cohort 1: 200 mg QD, Cycle 9, Day 1): 0.4 (5.1) percent predicted FVC
Change From Baseline in Percent Predicted Forced Vital Capacity (FVC) (Cohort 1: 200 mg QD, Cycle 11, Day 1): −1.1 (7.3) percent predicted FVC
Change From Baseline in Percent Predicted Forced Vital Capacity (FVC) (Cohort 1: 200 mg QD, Cycle 12, Day 1): 2.0 (—) percent predicted FVC
Change From Baseline in Percent Predicted Forced Vital Capacity (FVC) (Cohort 1: 200 mg QD, Cycle 13, Day 1): −2.4 (7.9) percent predicted FVC
Change From Baseline in Percent Predicted Forced Vital Capacity (FVC) (Cohort 1: 200 mg QD, Cycle 14, Day 1): 11.0 (—) percent predicted FVC
Change From Baseline in Percent Predicted Forced Vital Capacity (FVC) (Cohort 1: 200 mg QD, Cycle 15, Day 1): −3.7 (10.4) percent predicted FVC
Change From Baseline in Percent Predicted Forced Vital Capacity (FVC) (Cohort 1: 200 mg QD, Cycle 16, Day 1): 16.0 (—) percent predicted FVC
Change From Baseline in Percent Predicted Forced Vital Capacity (FVC) (Cohort 1: 200 mg QD, Cycle 17, Day 1): −3.2 (6.3) percent predicted FVC
Change From Baseline in Percent Predicted Forced Vital Capacity (FVC) (Cohort 1: 200 mg QD, Cycle 19, Day 1): −2.3 (6.8) percent predicted FVC
Change From Baseline in Percent Predicted Forced Vital Capacity (FVC) (Cohort 1: 200 mg QD, Cycle 21, Day 1): −3.2 (8.1) percent predicted FVC
Change From Baseline in Percent Predicted Forced Vital Capacity (FVC) (Cohort 1: 200 mg QD, Cycle 23, Day 1): 0.0 (12.3) percent predicted FVC
Change From Baseline in Percent Predicted Forced Vital Capacity (FVC) (Cohort 1: 200 mg QD, Cycle 24, Day 1): 4.0 (—) percent predicted FVC
Change From Baseline in Percent Predicted Forced Vital Capacity (FVC) (Cohort 1: 200 mg QD, Cycle 25, Day 1): −7.0 (11.3) percent predicted FVC
Change From Baseline in Percent Predicted Forced Vital Capacity (FVC) (Cohort 1: 200 mg QD, Cycle 26, Day 1): 4.0 (—) percent predicted FVC
Change From Baseline in Percent Predicted Forced Vital Capacity (FVC) (Cohort 1: 200 mg QD, Cycle 27, Day 1): −2.0 (4.2) percent predicted FVC
Change From Baseline in Percent Predicted Forced Vital Capacity (FVC) (Cohort 1: 200 mg QD, Cycle 29, Day 1): 2.5 (4.9) percent predicted FVC
Change From Baseline in Percent Predicted Forced Vital Capacity (FVC) (Cohort 1: 200 mg QD, Cycle 30, Day 1): 4.0 (—) percent predicted FVC
Change From Baseline in Percent Predicted Forced Vital Capacity (FVC) (Cohort 1: 200 mg QD, Cycle 31, Day 1): 1.5 (3.5) percent predicted FVC
Change From Baseline in Percent Predicted Forced Vital Capacity (FVC) (Cohort 1: 200 mg QD, Cycle 32, Day 1): 2.0 (—) percent predicted FVC
Change From Baseline in Percent Predicted Forced Vital Capacity (FVC) (Cohort 1: 200 mg QD, Cycle 33, Day 1): 11.0 (0.0) percent predicted FVC
Change From Baseline in Percent Predicted Forced Vital Capacity (FVC) (Cohort 1: 200 mg QD, Cycle 34, Day 1): 6.0 (—) percent predicted FVC
Change From Baseline in Percent Predicted Forced Vital Capacity (FVC) (Cohort 1: 200 mg QD, Cycle 35, Day 1): 11.0 (5.7) percent predicted FVC
Change From Baseline in Percent Predicted Forced Vital Capacity (FVC) (Cohort 1: 200 mg QD, Cycle 36, Day 1): 5.0 (—) percent predicted FVC
Change From Baseline in Percent Predicted Forced Vital Capacity (FVC) (Cohort 1: 200 mg QD, Cycle 48, Day 1): 5.0 (—) percent predicted FVC
Change From Baseline in Percent Predicted Forced Vital Capacity (FVC) (Cohort 1: 200 mg QD, Cycle 49, Day 1): 6.0 (—) percent predicted FVC
Change From Baseline in Percent Predicted Forced Vital Capacity (FVC) (Cohort 1: 200 mg QD, Cycle 51, Day 1): 9.0 (—) percent predicted FVC
Change From Baseline in Percent Predicted Forced Vital Capacity (FVC) (Cohort 1: 200 mg QD, Cycle 52, Day 1): 3.0 (—) percent predicted FVC
Change From Baseline in Percent Predicted Forced Vital Capacity (FVC) (Cohort 1: 200 mg QD, Cycle 53, Day 1): 8.0 (—) percent predicted FVC
Change From Baseline in Percent Predicted Forced Vital Capacity (FVC) (Cohort 1: 200 mg QD, Cycle 54, Day 1): 5.0 (—) percent predicted FVC
Change From Baseline in Percent Predicted Forced Vital Capacity (FVC) (Cohort 1: 200 mg QD, Cycle 55, Day 1): 13.0 (—) percent predicted FVC
Change From Baseline in Percent Predicted Forced Vital Capacity (FVC) (Cohort 1: 200 mg QD, Cycle 56, Day 1): 7.0 (—) percent predicted FVC
Change From Baseline in Percent Predicted Forced Vital Capacity (FVC) (Cohort 1: 200 mg QD, Cycle 57, Day 1): 14.0 (—) percent predicted FVC
Change From Baseline in Percent Predicted Forced Vital Capacity (FVC) (Cohort 1: 200 mg QD, Cycle 58, Day 1): 7.0 (—) percent predicted FVC
Change From Baseline in Percent Predicted Forced Vital Capacity (FVC) (Cohort 1: 200 mg QD, Cycle 60, Day 1): 8.0 (—) percent predicted FVC
Change From Baseline in Percent Predicted Forced Vital Capacity (FVC) (Cohort 1: 200 mg QD, Cycle 61, Day 1): 12.0 (—) percent predicted FVC
Change From Baseline in Percent Predicted Forced Vital Capacity (FVC) (Cohort 1: 200 mg QD, Cycle 62, Day 1): 5.0 (—) percent predicted FVC
Change From Baseline in Percent Predicted Forced Vital Capacity (FVC) (Cohort 1: 200 mg QD, Cycle 63, Day 1): 12.0 (—) percent predicted FVC
Change From Baseline in Percent Predicted Forced Vital Capacity (FVC) (Cohort 1: 200 mg QD, Cycle 67, Day 1): 14.0 (—) percent predicted FVC
Change From Baseline in Percent Predicted Forced Vital Capacity (FVC) (Cohort 1: 200 mg QD, EOT): −2.5 (10.3) percent predicted FVC
Change From Baseline in Percent Predicted Forced Vital Capacity (FVC) (Cohort 2: 200 mg BID, Cycle 3, Day 1): −2.4 (6.0) percent predicted FVC
Change From Baseline in Percent Predicted Forced Vital Capacity (FVC) (Cohort 2: 200 mg BID, Cycle 5, Day 1): −4.3 (5.2) percent predicted FVC
Change From Baseline in Percent Predicted Forced Vital Capacity (FVC) (Cohort 2: 200 mg BID, Cycle 7, Day 1): −1.3 (6.4) percent predicted FVC
Change From Baseline in Percent Predicted Forced Vital Capacity (FVC) (Cohort 2: 200 mg BID, Cycle 8, Day 1): 2.0 (—) percent predicted FVC
Change From Baseline in Percent Predicted Forced Vital Capacity (FVC) (Cohort 2: 200 mg BID, Cycle 9, Day 1): −2.9 (5.5) percent predicted FVC
Change From Baseline in Percent Predicted Forced Vital Capacity (FVC) (Cohort 2: 200 mg BID, Cycle 10, Day 1): −5.0 (8.5) percent predicted FVC
Change From Baseline in Percent Predicted Forced Vital Capacity (FVC) (Cohort 2: 200 mg BID, Cycle 11, Day 1): −2.7 (5.6) percent predicted FVC
Change From Baseline in Percent Predicted Forced Vital Capacity (FVC) (Cohort 2: 200 mg BID, Cycle 12, Day 1): 1.0 (—) percent predicted FVC
Change From Baseline in Percent Predicted Forced Vital Capacity (FVC) (Cohort 2: 200 mg BID, Cycle 13, Day 1): −3.3 (15.4) percent predicted FVC

Source: patent US20260027116A1, “Methods of Treating Chronic Graft-Versus-Host Disease Following Allogeneic Hematopoietic Stem Cell Transplantation” (Kadmon Corporation, LLC, priority 2022, published 2026)
